Results reported in ChEMBL document CHEMBL6153146, “Secondary Metabolites of the Lichen Lethariella cladonioides and Their Neuroprotective Potential” (J Nat Prod, 2025).
Activity calls are given as the source filed them. No cut-off for these calls is given here.

Columns and labels:
Acetylcholinesterase = Acetylcholinesterase (Homo sapiens, UniProt P22303); test: Inhibition of AChe (unknown origin) incubated for 0.25 hrs by DTNB-reagent based Ellman's method
RAW264.7 [1] = test: Anti-inflammatory activity in mouse RAW264.7 cells assessed as inhibition of LPS-induced NO production incubated for 36 hrs by Griess assay; type: functional, cell-based; conditions: for IC50: RAW264.7, 36 h
RAW264.7 [2] = test: Anti-inflammatory activity in mouse RAW264.7 cells assessed as alleviation of LPS-induced IL-6 mRNA expression level at 12.5 to 50 uM by qRT-PCR analysis; type: functional, cell-based; conditions: dose 12.5-50 µM
RAW264.7 [3] = test: Anti-inflammatory activity in mouse RAW264.7 cells assessed as alleviation of LPS-induced IL-1 beta mRNA expression level at 12.5 to 50 uM by qRT-PCR analysis; type: functional, cell-based; conditions: dose 12.5-50 µM
RAW264.7 [4] = test: Anti-inflammatory activity in mouse RAW264.7 cells assessed as alleviation of LPS-induced TNF-alpha mRNA expression level at 12.5 to 50 uM by qRT-PCR analysis; type: functional, cell-based; conditions: dose 12.5-50 µM
RAW264.7 [5] = test: Anti-inflammatory activity in mouse RAW264.7 cells assessed as alleviation of LPS-induced cox-2 mRNA expression level at 12.5 to 50 uM by qRT-PCR analysis; type: functional, cell-based; conditions: dose 12.5-50 µM
RAW264.7 [6] = test: Anti-inflammatory activity in mouse RAW264.7 cells assessed as downregulation of the LPS-induced iNOS expression at 12.5 to 50 uM by qRT-PCR analysis; type: functional, cell-based; conditions: dose 12.5-50 µM
RAW264.7 [7] = test: Anti-inflammatory activity in mouse RAW264.7 cells assessed as downregulation of the LPS-induced IL-10 mRNA expression at 12.5 to 50 uM by qRT-PCR analysis; type: functional, cell-based; conditions: dose 12.5-50 µM
RAW264.7 [8] = test: Anti-inflammatory activity in mouse RAW264.7 cells assessed as alleviation of LPS-induced IL-6 mRNA expression level at 10 to 40 uM by qRT-PCR analysis; type: functional, cell-based; conditions: dose 10-40 µM
RAW264.7 [9] = test: Anti-inflammatory activity in mouse RAW264.7 cells assessed as alleviation of LPS-induced IL-1 beta mRNA expression level at 10 to 40 uM by qRT-PCR analysis; type: functional, cell-based; conditions: dose 10-40 µM
RAW264.7 [10] = test: Anti-inflammatory activity in mouse RAW264.7 cells assessed as alleviation of LPS-induced TNF-alpha mRNA expression level at 10 to 40 uM by qRT-PCR analysis; type: functional, cell-based; conditions: dose 10-40 µM
RAW264.7 [11] = test: Anti-inflammatory activity in mouse RAW264.7 cells assessed as alleviation of LPS-induced COX-2 mRNA expression level at 10 to 40 uM by qRT-PCR analysis; type: functional, cell-based; conditions: dose 10-40 µM

Acetylcholinesterase, sequence (P22303 whole entry): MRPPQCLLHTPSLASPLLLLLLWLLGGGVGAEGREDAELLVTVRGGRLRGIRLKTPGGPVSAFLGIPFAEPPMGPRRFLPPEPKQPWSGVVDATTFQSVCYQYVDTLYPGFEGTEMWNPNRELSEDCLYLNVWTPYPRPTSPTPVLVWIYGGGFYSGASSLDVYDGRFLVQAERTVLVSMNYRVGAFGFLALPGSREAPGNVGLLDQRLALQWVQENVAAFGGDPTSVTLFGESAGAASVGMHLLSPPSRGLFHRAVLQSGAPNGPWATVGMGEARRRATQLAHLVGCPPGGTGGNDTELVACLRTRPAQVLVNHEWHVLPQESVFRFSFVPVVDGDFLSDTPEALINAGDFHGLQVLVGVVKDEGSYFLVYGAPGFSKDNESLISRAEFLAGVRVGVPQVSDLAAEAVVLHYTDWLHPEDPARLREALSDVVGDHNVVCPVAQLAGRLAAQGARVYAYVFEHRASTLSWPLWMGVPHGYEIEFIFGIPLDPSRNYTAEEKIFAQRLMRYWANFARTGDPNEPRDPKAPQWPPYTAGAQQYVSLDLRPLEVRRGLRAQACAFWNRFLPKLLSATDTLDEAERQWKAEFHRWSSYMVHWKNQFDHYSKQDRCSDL

Row | SMILES | IC50 (Acetylcholinesterase) | Activity (RAW264.7 [1]) | further results
1 | CC(=O)C1=C(O)C=C2Oc3c(C(C)=O)c(O)c(C)c(O)c3[C@@]2(C)C1=O [(+)-USNIC ACID] | 28 µM | inactive | 
2 | CCOC(=O)c1c(C)cc(OC(=O)c2c(C)cc(O)cc2O)cc1O | 15 µM | inactive | 
3 | CCOC(=O)c1c(C)cc(O)c(Cc2c(C)c(C(=O)OC)c(O)c(C)c2O)c1O |  |  | IC50 (RAW264.7 [1]): 28 µM; Activity (RAW264.7 [2]): Active; Activity (RAW264.7 [3]): Active; Activity (RAW264.7 [4]): Active; Activity (RAW264.7 [5]): Active; Activity (RAW264.7 [6]): Active
4 | COC(=O)c1c(C)cc(O)cc1O [METHYL ORSELLINATE] | 24 µM | inactive | 
5 | CCOC(=O)c1c(O)cc(O)c(Cc2c(O)cc(C)c(C(=O)OCC)c2O)c1C | 19 µM | inactive | 
6 | CCOC(=O)c1c(O)cc(O)c(Cc2c(O)cc(C)c(C(=O)OC)c2O)c1C | 20 µM |  | IC50 (RAW264.7 [1]): 35 µM; Activity (RAW264.7 [7]): Active
7 | Cc1cc(O)c(C)c(O)c1 | 25 µM | inactive | 
8 | COC(=O)c1c(C)cc(O)c(Cc2c(C)c(C(=O)OC)c(O)c(C)c2O)c1O |  |  | IC50 (RAW264.7 [1]): 20 µM; Activity (RAW264.7 [8]): Active; Activity (RAW264.7 [9]): Active; Activity (RAW264.7 [10]): Active; Activity (RAW264.7 [11]): Active
9 | COCc1c(O)c(Oc2c(C=O)c(O)cc(C)c2C(=O)OC)c2c(c1O)C(=O)O[C@H]2O | 7.1 µM | inactive | 
10 | OCc1cc(O)cc(O)c1 | 28 µM | inactive | 
11 | Cc1cc(O)cc(OC(=O)c2c(C)cc(O)c(C=O)c2O)c1 | 15 µM | inactive | 
12 | COC(=O)c1c(C)cc(O)c(Cc2c(O)cc(C)cc2O)c1O | 15 µM | inactive | 
13 | Cc1cc(O)cc(O)c1C(=O)O [ORSELLINIC ACID] | 26 µM | inactive | 
